Reference: patent US5102885A, “Imidazoquinoxaline compounds and their use” (Novo Nordisk A/S, priority 1989, dated 1992)

Tested on: benzodiazepine receptors
Test: In vivo displacement of 3H-flunitrazepam specific binding to brain benzodiazepine receptors in mice
Set-up: species or system mice (female, NMR)
Conditions: test substance i.p. 15 min before 3H-FNM i.v. (4 μCi), sacrificed 20 min after 3H-FNM, forebrain
Description: The pharmaceutical properties of the compounds of the invention can be illustrated by determining their capability for displacing radioactive labelled flunitrazepam from benzodiazepine receptors.
The displacement activity of the compounds of the invention may be found by determining the ED50 value. The ED50 value represents the dose (mg/kg) of a test substance which causes the specific binding of flunitrazepam to benzodiazepine receptors in a living brain to be reduced to 50% of the control value.
Such an in vivo test is carried out as follows:
Twenty minutes after a dose of ^3 H-flunitrazepam (^3 H-FNM) (200 μCi/kg, i.v.) the amount of specific ^3 H-FNM binding to brain benzodiazepine receptors has reached its maximal value.
Suspensions of test substances (2 mg/ml) are prepared in 5% Duphasol-X (TM Duphar, castor oil-ethylene oxide derivative for emulsifying and solubilizing oil and other water-insoluble substances) by sonification for 10 min using a Branson B15 microtip ultrasonifier (setting 7). Groups of three mice (female, NMR, 18-22 grams) are injected with the test substance at 100 mg/kg intraperitoneally. Fifteen minutes after test substance administration the mice are challenged with 4 μCi intravenously of ^3 H-FNM (70-90 Ci/mole) in 200 μl physiological saline. Twenty minutes after ^3 H-FNM administration mice are sacrificed by decapitation, the forebrains rapidly excised (within 30 sec) and homogenized in 12 ml of icecold 25 mM KH2 PO4, pH 7.1, using an Ultra-Turrax homogenizer fitted with an N 10 shaft. Two aliquots of 1 ml are immediately filtered through Whatman GF/C glassfibre filters and washed with 2×5 ml of the above mentioned buffer. The amounts of radioactivity on the filters are determined by conventional scintillation counting. One group of untreated mice serves as control. One to three mice are injected with 25 μg/kg clonazepam i.p. 30 minutes before ^3 H-FNM to determine the amount of non-specific ^3 H-FNM binding, which should be between 8-15% of total binding. […]
The ED50 value is determined from dose response curves.

| Structure (SMILES) | ED50 (dose which inhibits 50% of specific 3H-flunitrazepam binding to benzodiazepine receptors in living brain) [mg/kg] |
| --- | --- |
| CC(C)n1c(=O)c2c(C(=O)CC(=O)C3CC3)ncn2c2ccccc21 [Compound 2, 3-(3-cyclopropyl-1,3-dioxopropyl)-4,5-dihydro-5-isopropyl-4-oxo-imidazo[1,5-a]quinoxaline] | 1.5 |
| CC(=O)CC(=O)c1ncn2c1c(=O)n(C(C)C)c1ccccc12 [Compound 4, 4,5-dihydro-5-isopropyl-4-oxo-3-(1,3-dioxobutyl)-imidazo-[1,5-a]quinoxaline] | 1.4 |
| CC(C)(C)n1c(=O)c2c(C(=O)CC(=O)C3CC3)ncn2c2ccccc21 [Compound 6, 5-tert-butyl-3-(3-cyclopropyl-1,3-dioxopropyl)-4,5-dihydro-4-oxo-imidazo[1,5-a]quinoxaline] | 2.5 |
